pEC50: −log10 of the molar value. Read-outs that look alike come from different tables or passages of the source.
Tests used:
[1] = biological target: FynT enzyme (Homo sapiens (Human), UniProt P06241); test: FynT enzyme activity (IMAP fluorescence polarization assay); assay type: biochemical; details: 60 min pre-incubation, 0.2 μM ATP
Experimental: FynT enzyme activity is measured using the IMAP (immobilized metal ion affinity-based fluorescence polarization) assay as outlined below.
Test compounds and FynT enzyme are pre-incubated 60 minutes at room temperature, before adding 5 μL/well of 400 nM Fluorescin labeled substrate peptide (p34cdc2 substrate peptide, e.g. #R7157/#R7172, Molecular Devices) in KR-buffer. Final peptide substrate concentration in assay is 100 nM. […] Following incubation for 2 h at room temperature the enzyme reaction is stopped by adding 40 μL/well IMAP Progressive Binding Solution (according to suppliers (Molecular Devices) protocol using 75% 1× buffer A and 25% 1× buffer B with 1:600 Progressive Binding Solution). After 60 min incubation at room temperature in the dark the FP signal is read. […] Values are calculated as percentage of the difference in readout (ΔmPi) of the controls with and without ATP. EC50 values are determined by curve fitting of the experimental results using Activity Base.

[2] = biological target: Btk enzyme (His-Btk) (Homo sapiens (Human), UniProt Q06187); test: Btk enzyme activity (IMAP fluorescence polarization assay); details: for EC50: read-out: EC50 Btk activity values
Chain of Btk enzyme (His-Btk) (Q06187 whole entry): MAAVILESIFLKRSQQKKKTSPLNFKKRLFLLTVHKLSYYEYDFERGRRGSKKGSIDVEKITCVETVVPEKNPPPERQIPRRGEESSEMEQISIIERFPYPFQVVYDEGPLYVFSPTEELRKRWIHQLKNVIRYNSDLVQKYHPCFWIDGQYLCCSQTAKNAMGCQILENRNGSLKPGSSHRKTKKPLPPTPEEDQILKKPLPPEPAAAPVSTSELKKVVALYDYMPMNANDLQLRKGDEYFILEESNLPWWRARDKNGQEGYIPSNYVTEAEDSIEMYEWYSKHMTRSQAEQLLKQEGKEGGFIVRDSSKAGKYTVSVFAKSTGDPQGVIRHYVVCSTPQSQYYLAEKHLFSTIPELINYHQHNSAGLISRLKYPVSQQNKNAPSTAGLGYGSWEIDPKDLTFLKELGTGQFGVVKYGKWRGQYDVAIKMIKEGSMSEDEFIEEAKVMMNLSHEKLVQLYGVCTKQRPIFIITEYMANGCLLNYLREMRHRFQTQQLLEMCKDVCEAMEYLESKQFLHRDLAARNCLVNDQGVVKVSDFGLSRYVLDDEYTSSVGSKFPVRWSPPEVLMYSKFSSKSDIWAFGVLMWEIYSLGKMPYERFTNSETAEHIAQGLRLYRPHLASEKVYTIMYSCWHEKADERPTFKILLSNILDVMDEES

[3] = biological target: Lck enzyme (Homo sapiens (Human), UniProt P06239); test: Lck enzyme activity (IMAP fluorescence polarization assay); details: read-out: EC50 Lck activity values; IMAP, 60 min pre-incubation, 6 μM ATP; bin bound in μM
Chain of Lck enzyme (P06239 whole entry): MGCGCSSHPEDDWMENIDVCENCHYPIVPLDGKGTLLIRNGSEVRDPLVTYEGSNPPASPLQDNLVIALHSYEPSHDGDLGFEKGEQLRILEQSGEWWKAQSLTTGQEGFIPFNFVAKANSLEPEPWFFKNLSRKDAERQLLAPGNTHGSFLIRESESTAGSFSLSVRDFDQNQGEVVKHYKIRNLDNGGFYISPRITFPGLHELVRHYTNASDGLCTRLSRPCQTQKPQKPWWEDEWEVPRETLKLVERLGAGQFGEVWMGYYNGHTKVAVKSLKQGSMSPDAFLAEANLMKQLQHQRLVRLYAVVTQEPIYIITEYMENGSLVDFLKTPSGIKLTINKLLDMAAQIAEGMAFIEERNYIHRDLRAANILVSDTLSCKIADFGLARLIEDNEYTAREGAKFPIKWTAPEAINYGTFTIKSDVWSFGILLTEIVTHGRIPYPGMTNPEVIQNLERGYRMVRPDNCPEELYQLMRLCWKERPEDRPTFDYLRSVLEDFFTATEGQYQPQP

[4] = biological target: Src enzyme (Homo sapiens (Human), UniProt P12931); test: Src enzyme activity (IMAP fluorescence polarization assay); details: read-out: EC50 Src activity values; IMAP, 60 min pre-incubation, 4 μM ATP
Chain of Src enzyme (P12931 whole entry, looked up): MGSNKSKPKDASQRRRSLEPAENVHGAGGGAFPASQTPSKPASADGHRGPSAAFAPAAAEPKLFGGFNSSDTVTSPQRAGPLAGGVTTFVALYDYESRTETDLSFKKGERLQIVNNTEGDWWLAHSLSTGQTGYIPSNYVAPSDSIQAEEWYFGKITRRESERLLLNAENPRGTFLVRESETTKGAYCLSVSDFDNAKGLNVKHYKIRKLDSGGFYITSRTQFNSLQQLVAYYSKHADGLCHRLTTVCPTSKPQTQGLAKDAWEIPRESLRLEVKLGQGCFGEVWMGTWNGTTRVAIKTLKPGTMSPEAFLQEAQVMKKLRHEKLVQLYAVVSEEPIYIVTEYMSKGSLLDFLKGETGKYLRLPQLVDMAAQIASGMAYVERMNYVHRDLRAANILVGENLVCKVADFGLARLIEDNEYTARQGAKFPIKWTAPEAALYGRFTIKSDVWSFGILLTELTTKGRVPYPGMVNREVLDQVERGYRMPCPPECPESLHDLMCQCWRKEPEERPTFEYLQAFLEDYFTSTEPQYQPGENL

[5] = biological target: Lyn enzyme (Homo sapiens (Human), UniProt P07948); test: Lyn enzyme activity (IMAP fluorescence polarization assay); details: read-out: EC50 Lyn activity values, 60 min pre-incubation, 2 μM ATP, bin bound in μM
Chain of Lyn enzyme (P07948 whole entry): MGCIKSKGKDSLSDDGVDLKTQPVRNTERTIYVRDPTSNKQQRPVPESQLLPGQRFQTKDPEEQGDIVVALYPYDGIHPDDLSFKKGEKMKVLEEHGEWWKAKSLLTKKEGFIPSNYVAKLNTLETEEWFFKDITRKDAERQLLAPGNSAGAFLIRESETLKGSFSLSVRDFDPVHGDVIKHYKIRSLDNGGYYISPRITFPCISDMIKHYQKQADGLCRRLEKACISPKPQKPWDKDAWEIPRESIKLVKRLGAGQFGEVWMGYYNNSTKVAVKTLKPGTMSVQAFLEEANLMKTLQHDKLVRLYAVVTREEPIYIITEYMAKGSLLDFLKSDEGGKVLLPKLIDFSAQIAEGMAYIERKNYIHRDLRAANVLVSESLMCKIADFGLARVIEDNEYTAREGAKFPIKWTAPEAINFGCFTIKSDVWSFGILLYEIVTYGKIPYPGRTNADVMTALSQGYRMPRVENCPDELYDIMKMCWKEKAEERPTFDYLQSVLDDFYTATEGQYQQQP

[6] = IMAP, 60 min pre-incubation, 5 μM ATP, bin bound in nM

Chain of FynT enzyme (P06241 other isoform, or with tags, fused parts or gaps): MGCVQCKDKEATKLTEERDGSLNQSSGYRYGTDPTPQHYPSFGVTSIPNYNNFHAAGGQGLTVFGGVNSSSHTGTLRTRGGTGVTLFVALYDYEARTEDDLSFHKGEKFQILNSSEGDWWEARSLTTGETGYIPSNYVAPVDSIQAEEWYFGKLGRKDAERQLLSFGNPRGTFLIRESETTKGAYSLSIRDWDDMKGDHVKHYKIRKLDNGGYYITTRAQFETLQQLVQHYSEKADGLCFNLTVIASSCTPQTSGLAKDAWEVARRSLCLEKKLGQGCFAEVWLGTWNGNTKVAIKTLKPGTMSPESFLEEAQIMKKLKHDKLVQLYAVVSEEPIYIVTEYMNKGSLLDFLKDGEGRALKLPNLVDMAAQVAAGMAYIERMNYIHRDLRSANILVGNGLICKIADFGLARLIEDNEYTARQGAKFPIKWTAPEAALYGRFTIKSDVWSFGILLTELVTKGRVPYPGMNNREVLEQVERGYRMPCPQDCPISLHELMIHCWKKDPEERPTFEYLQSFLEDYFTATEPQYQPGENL

| SMILES | pEC50 [1] | EC50 [2, 6] [nM] | EC50 [3] [µM] | pEC50 [4] | EC50 [5] [µM] | pEC50 [2] | EC50 Btk activity values [2, 6] [nM] |
| --- | --- | --- | --- | --- | --- | --- | --- |
| C=CC(=O)N1CCCC[C@H]1c1nc(-c2ccc(C(=O)Nc3cc(F)ccn3)cc2)c2c(N)nccn12 [Example 17, (S)-4-(3-(1-Acryloylpiperidin-2-yl)-8-aminoimidazo[1,5-a]pyrazin-1-yl)-N-(4-fluoropyridin-2-yl)benzamide] | ≤ 6.00 | < 10 | ≥ 1 | ≤ 6.00 | ≥ 1 |  |  |
| C=CC(=O)N1CCCC[C@H]1c1nc(-c2ccc(C(=O)Nc3cc(C#N)ccn3)cc2)c2c(N)nccn12 [Example 18, (S)-4-(3-(1-Acryloylpiperidin-2-yl)-8-aminoimidazo[1,5-a]pyrazin-1-yl)-N-(4-cyanopyridin-2-yl)benzamide] | ≤ 6.00 | < 10 | ≥ 1 | ≤ 6.00 | ≥ 1 |  |  |
| C=CS(=O)(=O)N1CCCC[C@H]1c1nc(-c2ccc(C(=O)Nc3cc(C(F)(F)F)ccn3)cc2)c2c(N)nccn12 [Example 19, (S)-4-(8-Amino-3-(1-(vinylsulfonyl)piperidin-2-yl)imidazo[1,5-a]pyrazin-1-yl)-N-(4-(trifluoromethyl)pyridin-2-yl)benzamide] | ≤ 6.00 | < 10 | ≥ 1 | ≤ 6.00 | ≥ 1 |  |  |
| C=CC(=O)N1CCCC[C@H]1c1nc(-c2ccc(C(=O)Nc3ncccn3)cc2)c2c(N)nccn12 [Example 20, (S)-4-(3-(1-Acryloylpiperidin-2-yl)-8-aminoimidazo[1,5-a]pyrazin-1-yl)-N-(pyrimidin-2-yl)benzamide] | ≤ 6.00 | < 10 | ≥ 1 | ≤ 6.00 | ≥ 1 |  |  |
| C=CC(=O)N1CCCC[C@H]1c1nc(-c2ccc(C(=O)Nc3nccc(C)n3)cc2)c2c(N)nccn12 [Example 21, (S)-4-(3-(1-Acryloylpiperidin-2-yl)-8-aminoimidazo[1,5-a]pyrazin-1-yl)-N-(4-methylpyrimidin-2-yl)benzamide] | ≤ 6.00 | < 10 | ≥ 1 | ≤ 6.00 | ≥ 1 |  |  |
| CC#CC(=O)N1CCCC[C@H]1c1nc(-c2ccc(C(=O)Nc3ccncn3)cc2)c2c(N)nccn12 [Example 22, (S)-4-(8-Amino-3-(1-but-2-ynoylpiperidin-2-yl)imidazo[1,5-a]pyrazin-1-yl)-N-(pyrimidin-4-yl)benzamide] | ≤ 6.00 | < 10 | ≥ 1 | ≤ 6.00 | ≥ 1 |  |  |
| CC#CC(=O)N1CCCC[C@H]1c1nc(-c2ccc(C(=O)Nc3cccnn3)cc2)c2c(N)nccn12 [Example 23, (S)-4-(8-Amino-3-(1-but-2-ynoylpiperidin-2-yl)imidazo[1,5-a]pyrazin-1-yl)-N-(pyridazin-3-yl)benzamide] | ≤ 6.00 | < 10 | ≥ 1 | ≤ 6.00 | ≥ 1 |  |  |
| CC#CC(=O)N1CCCC[C@H]1c1nc(-c2ccc(C(=O)Nc3ccon3)cc2)c2c(N)nccn12 [Example 24, (S)-4-(8-Amino-3-(1-but-2-ynoylpiperidin-2-yl)imidazo[1,5-a]pyrazin-1-yl)-N-(isoxazol-3-yl)benzamide] | ≤ 6.00 |  | ≥ 1 | ≤ 6.00 | ≥ 1 | 7.00 to 8.00 | <100 |
| CCc1cnc(NC(=O)c2ccc(-c3nc([C@@H]4CCCCN4C(=O)/C=C/COC)n4ccnc(N)c34)cc2)s1 [Example 25, (S,E)-4-(8-Amino-3-(1-(4-methoxybut-2-enoyl)piperidin-2-yl)imidazo[1,5-a]pyrazin-1-yl)-N-(5-ethylthiazol-2-yl)benzamide] | ≤ 6.00 | < 10 | ≥ 1 | ≤ 6.00 | ≥ 1 |  |  |
| C=CC(=O)N1CCCC[C@H]1c1nc(-c2ccc(C(=O)Nc3cc(CCC)ccn3)c(F)c2)c2c(N)nccn12 [Example 26, (S)-4-(3-(1-Acryloylpiperidin-2-yl)-8-aminoimidazo[1,5-a]pyrazin-1-yl)-2-fluoro-N-(4-propylpyridin-2-yl)benzamide] | ≤ 6.00 | < 10 | ≥ 1 | ≤ 6.00 | ≥ 1 |  |  |
| CCCc1ccnc(NC(=O)c2ccc(-c3nc([C@@H]4CCCCN4C(=O)/C=C/CN(C)C)n4ccnc(N)c34)cc2OC)c1 [Example 27, (S,E)-4-(8-Amino-3-(1-(4-(dimethylamino)but-2-enoyl)piperidin-2-yl)imidazo[1,5-a]pyrazin-1-yl)-2-methoxy-N-(4-propylpyridin-2-yl)benzamide] | ≤ 6.00 | < 10 | ≥ 1 | ≤ 6.00 | ≥ 1 |  |  |
| CC#CC(=O)N1CCCC[C@H]1c1nc(-c2ccc(C(=O)Nc3ccccn3)cc2C)c2c(N)nccn12 [Example 28, 4-(8-Amino-3-((S)-1-but-2-ynoylpiperidin-2-yl)imidazo[1,5-a]pyrazin-1-yl)-3-methyl-N-(pyridin-2-yl)benzamide] | ≤ 6.00 | < 10 | ≥ 1 | ≤ 6.00 | ≥ 1 |  |  |
| C=CC(=O)NCc1nc(-c2ccc(C(=O)Nc3ccccn3)cc2)c2c(N)nccn12 [Example 29, 4-(3-(Acrylamidomethyl)-8-aminoimidazo[1,5-a]pyrazin-1-yl)-N-(pyridin-2-yl)benzamide] | ≤ 6.00 | < 10 | ≥ 1 | ≤ 6.00 | ≥ 1 |  |  |
| CC#CC(=O)N[C@@H](C)c1nc(-c2ccc(C(=O)Nc3ccccn3)cc2)c2c(N)nccn12 [Example 30, (S)-4-(8-Amino-3-(1-but-2-ynamidoethyl)imidazo[1,5-a]pyrazin-1-yl)-N-(pyridin-2-yl)benzamide] | ≤ 6.00 | < 10 | ≥ 1 | ≤ 6.00 | ≥ 1 |  |  |
| CC(=O)SCC(=O)N1CCC[C@H]1c1nc(-c2ccc(C(=O)Nc3ccccn3)cc2)c2c(N)nccn12 [Example 31, (S)—S-2-(2-(8-Amino-1-(4-(pyridin-2-ylcarbamoyl)phenyl)imidazo[1,5-a]pyrazin-3-yl)pyrrolidin-1-yl)-2-oxoethyl ethanethioate] | ≤ 6.00 | < 10 | ≥ 1 | ≤ 6.00 | ≥ 1 |  |  |
| CC(C)(O)C#CC(=O)N1CCC[C@H]1c1nc(-c2ccc(C(=O)Nc3ccccn3)cc2)c2c(N)nccn12 [Example 32, (S)-4-(8-Amino-3-(1-(4-hydroxy-4-methylpent-2-ynoyl)pyrrolidin-2-yl)imidazo[1,5-a]pyrazin-1-yl)-N-(pyridin-2-yl)benzamide] | ≤ 6.00 | < 10 | ≥ 1 | ≤ 6.00 | ≥ 1 |  |  |
| Nc1nccn2c([C@@H]3CCCN3C(=O)c3cc(Cl)ncn3)nc(-c3ccc(C(=O)Nc4ccccn4)cc3)c12 [Example 33, (S)-4-(8-Amino-3-(1-(6-chloropyrimidine-4-carbonyl)pyrrolidin-2-yl)imidazo[1,5-a]pyrazin-1-yl)-N-(pyridin-2-yl)benzamide] | ≤ 6.00 | < 10 | ≥ 1 | ≤ 6.00 | ≥ 1 |  |  |
| CCC#CC(=O)N1CCC[C@H]1c1nc(-c2ccc(C(=O)Nc3ccccn3)cc2)c2c(N)nccn12 [Example 34, (S)-4-(8-Amino-3-(1-pent-2-ynoylpyrrolidin-2-yl)imidazo[1,5-a]pyrazin-1-yl)-N-(pyridin-2-yl)benzamide] | ≤ 6.00 | < 10 | ≥ 1 | ≤ 6.00 | ≥ 1 |  |  |
| Nc1nccn2c([C@@H]3CCCN3C(=O)C#CC3CC3)nc(-c3ccc(C(=O)Nc4ccccn4)cc3)c12 [Example 35, (S)-4-(8-Amino-3-(1-(3-cyclopropylpropioloyl)pyrrolidin-2-yl)imidazo[1,5-a]pyrazin-1-yl)-N-(pyridin-2-yl)benzamide] | ≤ 6.00 | < 10 | ≥ 1 | ≤ 6.00 | ≥ 1 |  |  |
| CCCC#CC(=O)N1CCC[C@H]1c1nc(-c2ccc(C(=O)Nc3ccccn3)cc2)c2c(N)nccn12 [Example 36, (S)-4-(8-Amino-3-(1-hex-2-ynoylpyrrolidin-2-yl)imidazo[1,5-a]pyrazin-1-yl)-N-(pyridin-2-yl)benzamide] | ≤ 6.00 | < 10 | ≥ 1 | ≤ 6.00 | ≥ 1 |  |  |
| C=CC(=O)N1CCCCCC1c1nc(-c2ccc(C(=O)Nc3ccccn3)cc2)c2c(N)nccn12 (stereo not shown) [Example 37, 4-(3-(1-Acrloylazepan-2-yl)-8-aminoimidazo[1,5-a]pyrazin-1-yl)-N-(pyridin-2-yl)benzamide] | ≤ 6.00 | < 10 | ≥ 1 | ≤ 6.00 | ≥ 1 |  |  |
